Assay results: paper PMC4763008, “Selective Inhibition of Bakuchicin Isolated from Psoralea corylifolia on CYP1A in Human Liver Microsomes” (Evidence-based Complementary and Alternative Medicine : eCAM, 2016)
“Also recorded” adds a separate entry of the source. Like-named read-outs stand apart in the source and are kept apart here.

Columns and labels:
Type in all cases: in vitro ADME
CYP1A = biological target: T1, CYP1A (Homo sapiens, UniProt P05177); experiment: Inhibition mode on CYP1A-catalyzed phenacetin O-deethylation in HLMs (Lineweaver-Burk and secondary plot); settings: for inhibition mechanism on CYP1A in HLMs: pooled HLMs, phenacetin O-deethylation, Lineweaver-Burk plot / IC50 shift
T1 sequence (P05177 2-516): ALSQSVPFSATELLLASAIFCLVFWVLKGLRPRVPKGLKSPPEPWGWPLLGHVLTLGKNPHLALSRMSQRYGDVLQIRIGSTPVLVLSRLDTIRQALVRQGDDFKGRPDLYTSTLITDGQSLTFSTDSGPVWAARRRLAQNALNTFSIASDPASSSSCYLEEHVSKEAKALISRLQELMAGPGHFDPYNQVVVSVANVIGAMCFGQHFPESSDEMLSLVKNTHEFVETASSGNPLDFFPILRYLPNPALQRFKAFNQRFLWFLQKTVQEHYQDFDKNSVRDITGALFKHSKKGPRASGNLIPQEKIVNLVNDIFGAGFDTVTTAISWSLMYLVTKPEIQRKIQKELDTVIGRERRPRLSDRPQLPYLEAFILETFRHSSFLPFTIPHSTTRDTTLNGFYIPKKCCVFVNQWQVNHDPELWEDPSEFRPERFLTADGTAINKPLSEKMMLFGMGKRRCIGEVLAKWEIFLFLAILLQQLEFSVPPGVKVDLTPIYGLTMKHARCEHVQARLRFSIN
Description: To characterize the inhibition mode on CYP1A by bakuchicin, 0.5 mg/mL of HLMs was incubated with bakuchicin at 0, 0.2, 0.4, and 0.8 μM in 0.1 M potassium phosphate buffer (pH 7.4) for 60 min at 37°C. Those were terminated by adding 100 μL acetonitrile containing 0.1% formic acid and 2.5 μL of internal standard solution (5 μM reserpine) in methanol. After mixing and centrifuging at 13,000 ×g for 12 min, a 5 μL aliquot was injected onto a C18 column for LC-MS/MS analysis. Phenacetin was used as a probe substrate at 20, 40, or 80 μM. The inhibition pattern was investigated by Michaelis-Menten and its secondary plotting.
(§1) All measurements were performed using LC-MS/MS in multiple reaction monitoring mode. LC-MS/MS was performed using an Accela™ LC system coupled to a TSQ Vantage triple quadrupole mass spectrometer (Thermo Fisher Scientific Inc., USA) equipped with a HESI-II Spray source. Electrospray ionization was performed in positive mode at a spray voltage of 3,500 V (except for the detection of 6-hydroxy chlorzoxazone). Nitrogen was used as a sheath and auxiliary gas at optimum values of 45 and 20 (arbitrary units), respectively. Vaporizer and capillary temperatures were 150 and 300°C, respectively. For LC analysis an Inertsil® ODS-2 (3 μm, 2.1 × 150 mm) column (GL Sciences Inc., Torrance, CA) was used. The mobile phase consisted of acetonitrile (mobile phase A) and water (mobile phase B), both of which contained 0.1% formic acid, at a flow rate of 0.22 mL/min at 30°C.
All incubations were performed in duplicate, and data are presented as means. IC50 values (the concentration of inhibitor causing a 50% inhibition in enzyme activity) were obtained using percent activity versus log[I] concentration plots. Kinetic parameters were estimated by curve fitting using SigmaPlot (version 12.0, Systat Software, Inc.).

CYP3A4 = biological target: T2, CYP3A4 (Homo sapiens, UniProt P08684); experiment: CYP inhibition, cocktail of probe substrates in pooled human liver microsomes: midazolam 1'-hydroxylation; settings: pooled HLMs, substrate 2.5 μM
T2 construct: each reaction was performed with 0.5 mg/mL pooled human liver microsomes; tissue Corning Gentest BD UltraPool HLM 150; host or cells: pooled human liver microsomes
T2 sequence (P08684 whole entry): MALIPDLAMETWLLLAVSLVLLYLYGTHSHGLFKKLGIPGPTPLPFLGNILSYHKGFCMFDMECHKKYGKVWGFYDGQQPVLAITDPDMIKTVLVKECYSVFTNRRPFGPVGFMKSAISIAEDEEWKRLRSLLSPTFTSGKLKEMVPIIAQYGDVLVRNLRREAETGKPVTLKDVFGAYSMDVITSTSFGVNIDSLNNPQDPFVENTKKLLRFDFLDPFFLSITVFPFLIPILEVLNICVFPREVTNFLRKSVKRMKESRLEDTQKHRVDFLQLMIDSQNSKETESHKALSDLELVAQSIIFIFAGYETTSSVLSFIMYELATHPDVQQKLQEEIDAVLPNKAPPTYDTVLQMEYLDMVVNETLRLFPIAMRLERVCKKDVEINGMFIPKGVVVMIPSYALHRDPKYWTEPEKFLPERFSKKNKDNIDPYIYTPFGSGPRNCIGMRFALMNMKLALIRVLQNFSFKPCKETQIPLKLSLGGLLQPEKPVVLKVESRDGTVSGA

CYP2C8 = biological target: T3, CYP2C8 (Homo sapiens, UniProt P10632); experiment: CYP inhibition, cocktail of probe substrates in pooled human liver microsomes: paclitaxel hydroxylation; settings: pooled HLMs, substrate 10 μM
T3 construct: each reaction was performed with 0.5 mg/mL pooled human liver microsomes; tissue Corning Gentest BD UltraPool HLM 150; host or cells: pooled human liver microsomes
T3 sequence (P10632 1-490): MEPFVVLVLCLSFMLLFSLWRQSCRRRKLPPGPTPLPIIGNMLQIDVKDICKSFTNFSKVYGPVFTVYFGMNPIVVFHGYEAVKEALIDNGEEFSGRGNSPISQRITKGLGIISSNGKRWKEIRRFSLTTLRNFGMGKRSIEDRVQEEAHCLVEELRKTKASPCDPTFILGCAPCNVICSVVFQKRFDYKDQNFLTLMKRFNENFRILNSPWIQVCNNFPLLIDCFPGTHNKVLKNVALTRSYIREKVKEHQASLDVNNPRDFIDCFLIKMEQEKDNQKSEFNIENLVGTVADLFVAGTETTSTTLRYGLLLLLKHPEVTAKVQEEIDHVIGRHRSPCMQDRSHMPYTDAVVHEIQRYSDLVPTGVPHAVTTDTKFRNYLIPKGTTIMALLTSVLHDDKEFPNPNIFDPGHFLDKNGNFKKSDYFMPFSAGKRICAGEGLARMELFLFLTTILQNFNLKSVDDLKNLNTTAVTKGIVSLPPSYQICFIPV

CYP2E1 = biological target: T4, CYP2E1 (Homo sapiens, UniProt P05181); experiment: CYP inhibition, cocktail of probe substrates in pooled human liver microsomes: chlorzoxazone 6-hydroxylation; settings: pooled HLMs, substrate 50 μM
T4 construct: tissue Corning Gentest BD UltraPool HLM 150; host or cells: pooled human liver microsomes
T4 sequence (P05181 whole entry): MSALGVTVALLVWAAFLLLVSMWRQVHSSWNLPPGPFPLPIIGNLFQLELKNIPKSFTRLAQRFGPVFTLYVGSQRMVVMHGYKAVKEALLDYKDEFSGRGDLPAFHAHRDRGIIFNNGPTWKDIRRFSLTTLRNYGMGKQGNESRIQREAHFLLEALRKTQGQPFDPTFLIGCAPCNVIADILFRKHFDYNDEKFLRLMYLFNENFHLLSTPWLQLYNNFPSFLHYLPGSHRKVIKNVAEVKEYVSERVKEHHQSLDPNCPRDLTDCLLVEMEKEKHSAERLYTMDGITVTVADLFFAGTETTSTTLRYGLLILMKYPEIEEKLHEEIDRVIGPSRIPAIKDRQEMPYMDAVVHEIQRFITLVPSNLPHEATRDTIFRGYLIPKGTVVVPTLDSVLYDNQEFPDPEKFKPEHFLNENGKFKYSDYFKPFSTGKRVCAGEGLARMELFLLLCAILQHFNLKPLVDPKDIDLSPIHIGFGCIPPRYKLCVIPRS
Description: All incubations were performed in duplicate, and data are presented as means. Briefly, each reaction was performed with 0.5 mg/mL pooled human liver microsomes in a final incubation volume of 0.1 mL. The incubation medium consisted of 0.1 M potassium phosphate buffer (pH 7.4) containing cocktail of probe substrates and a NADPH-generating system (NGS) of 0.1 M glucose 6-phosphate, 10 mg/mL β-NADPH, and 1.0 U/mL glucose-6-phosphate dehydrogenase. To investigate the IC50 of bakuchicin during CYP1A inhibition, bakuchicin (at final concentrations of 0–25 μM) was incubated without preincubation. In addition, the mixture with bakuchicin was preincubated for 15 min without the probe substrate cocktail in the presence or absence of 1 mM β-NADPH. After the reaction was initiated by adding the NGS for 60 min, incubated samples were terminated by adding 100 μL acetonitrile containing 0.1% formic acid and 2.5 μL of internal standard solution (5 μM reserpine) in methanol. After mixing and centrifuging at 13,000 ×g for 12 min, a 5 μL aliquot was injected onto a C18 column for LC-MS/MS analysis.
as §1
All incubations were performed in duplicate, and data are presented as means. […]

[1] = 15 min preincubation with NADPH, read-out: IC50 With preincubation with NADPH
[2] = 15 min preincubation without NADPH, read-out: IC50 With preincubation Without NADPH
[3] = without preincubation, read-out: IC50 Without preincubation

In the case of O=c1ccc2c(ccc3ccoc32)o1 [Bakuchicin], the Ki at 60 min (CYP1A; human, pooled human liver microsomes, pH 7.4, probe phenacetin (O-deethylation), phenacetin 20, 40, 80 μM, 60 min incubation) is reported as 0.09 µM, the “inhibition mechanism on CYP1A in HLMs” value (CYP1A) is reported as “reversible competitive inhibitor” and the “inhibition mechanism on CYP1A in HLMs” value (CYP1A; listed as bakuchicin) is reported as “competitive inhibition; also recorded: reversible inhibitor”. The IC50 (CYP3A4; [1]) was > 100 µM, the IC50 (CYP3A4; [2]) was > 100 µM and the IC50 (CYP3A4; [3]) was > 100 µM. The IC50 (CYP2C8; [1]) was > 100 µM, the IC50 (CYP2C8; [2]) was > 100 µM and the IC50 (CYP2C8; [3]) was > 100 µM. The IC50 (CYP2E1; [1]) was > 100 µM, the IC50 (CYP2E1; [2]) was > 100 µM and the IC50 (CYP2E1; [3]) was > 100 µM.
